Reference: patent US9707200B2, “Metabolism-improving agent comprising rare fatty acid” (KYOTO UNIVERSITY, priority 2012, dated 2017)

Experiments:
HepG2 cells = experiment: Immature and mature SREBP-1 protein expression induced by LXR agonist, Western blot; assay type: cell-based, human; details: 10 nM T0901317 + 60 μM fatty acid, 24 hr; for immature SREBP-1 expression induced by LXR agonist: membrane fraction; for mature SREBP-1 expression induced by LXR agonist: nuclear fraction
Protocol: HepG2 cells (2.0×10^5 cells/mL) were cultured in DMEM medium containing 10% FES for 24 hr, and the medium was exchanged with 0.1% BSA-containing DMEM medium containing 10 nM LXR agonist T0901317 (Cayman Chemicals) and 60 μM various fatty acid. After culture for 24 hr, the cells were recovered, and total RNA was extracted using Sepasol reagent (Nacalai Tesque). After DNase treatment, reverse transcription was performed using SuperScriptII (Invitrogen) to give a cDNA solution. Using SYBR Green Mix (Bio-Rad, Richmond, Calif.) and gene-specific primer (Table 1), real-time PCR was performed as follows.
In addition, the protein expression level of immature and mature SREBP-1c was measured. Cells treated as mentioned above were dispersed in buffer A (250 mM sucrose, 10 mM HEPES-KOH, 10 mM KCl, 1.5 mM MgCl2, 1 mM EDTA-Na, 1 mM EGTA-Na, pH 7.6) containing a protease inhibitor, passed 20 times through a 23 gauge injection needle, and centrifuged (1,000×g, 4° C., 5 min) to separate into supernatant 1 and precipitate 1. The precipitate 1 was re-dissolved in buffer B (20 mM HEPES-KOH, 0.42 M NaCl, 2.5% glycerol, 1.5 mM MgCl2, 1 mM EDTA-Na, 1 mM EGTA-Na, pH 7.6), and centrifuged (10^5×g, 4° C., 15 min). The obtained supernatant 2 was used as a nuclear fraction (including mature form). The supernatant 1 was further centrifuged (10^5×g, 4° C., 15 min), and the obtained precipitate 2 was dissolved in cell lysate (10 mM Tris-HCl, 100 mM NaCl, 1% SDS, 1 mM EDTA-Na, 1 mM EGTA-Na) and used as a membrane fraction (including immature form). Using these as samples, measurement was performed by Western blot method using anti-SREBP-1 polyclonal antibody (Santa Cruz). Using Dual luciferase system (Promega), antagonizing action on LXR was evaluated by luciferase assay. p3xIR1-tk-Luc, pCMX-hLXRa, pRL-CMX were introduced into HepG2 cell. After culture in a 0.1% BSA-containing serum-free medium containing various fatty acids and T0901317 for 24 hr, the luciferase activity was measured.

KKAy mouse = experiment: Effect in obesity or diabetes model mouse fed high-fat diet with added fatty acid; assay type: in vivo; details: for body weight: 4 weeks; for body weight / blood glucose level: vs control group
Protocol: (1) Using KKAy mouse as obesity or diabetes model mouse, the effect of KetoA, HYA was evaluated. KKAy mice (KKAy/TaJcl, male, 4-week-old, purchased from CLEA Japan, Inc. and individually bred) were preliminarily bred on a commercially available normal diet (ND) for 1 week, divided into 5 groups, and each group was bred on a high-fat diet (HFD) as a basic feed and given a non-addition feed (control group), or a feed added with different amounts of KetoA and HYA for 4 weeks. The KetoA, HYA-added feed was prepared by adding KetoA, HYA to HFD such that the amount to be added was 0.05% (w/w) (0.05% group) or 0.1% (w/w) (0.1% group).
(2) The profile of the body weight and blood glucose level of the KKAy mouse was measured. After the start of the test feed breeding, the oxygen consumption level was measured on day 16-19, an oral glucose loading test was performed on day 24, and the rectal temperature was measured on day 26. The next day of the completion of experimental breeding, the KKAy mouse was dissected, and the organ weight and plasma neutral fat level were measured.

PPARα = biological target: T1, PPARα (Homo sapiens, UniProt Q07869); experiment: PPARα ligand activity, GAL4-PPARα reporter luciferase assay in CV-1 cells; assay type: cell-based; details: 24 hr incubation, KetoA and HYA each at 30 μM, other fatty acids by a similar method
T1 construct: expressed in transfected cells; host or cells: CV-1 (African green monkey kidney)
T1 sequence (Q07869 239-466 limits assumed): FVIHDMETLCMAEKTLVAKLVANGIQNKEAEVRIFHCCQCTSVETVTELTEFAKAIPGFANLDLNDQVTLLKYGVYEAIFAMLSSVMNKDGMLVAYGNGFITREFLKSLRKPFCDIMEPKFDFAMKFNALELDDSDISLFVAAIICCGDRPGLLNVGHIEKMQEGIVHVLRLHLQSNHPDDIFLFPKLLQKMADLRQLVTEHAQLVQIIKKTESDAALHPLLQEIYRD
Protocol: (§1) To evaluate the function of oxo fatty acid and the like, PPARα, γ-activating action was measured first. The measurement was performed in reference to Nobuyuki Takahashi et al., FEES Letters 514 (2002) p. 315-322, “Dual action of isoprenols from herbal medicines on both PPARgamma and PPARalpha in 3T3-L1 adipocytes and HepG2 hepatocytes.”, the section of Materials and Methods “Reporter plasmids and luciferase assays”. To be specific, a plasmid containing DNA encoding a fused protein of PPARα, γ ligand binding region and GAL4 DNA binding region (pM-hPPARα or pM-hPPARγ), a reporter plasmid containing GAL4 binding DNA sequence linked to luciferase (p4xUASg-tk-luc), and internal control (pRL-CMV) to standardize transfection efficiency were introduced into CV-1 cell derived from the kidney of African green monkey. The ligand described below was added to the cells and, after incubation for 24 hr, luciferase activity was measured. As a ligand, KetoA and HYA were each added at 30 μM.
(§2) The concentration of the sample was adjusted with ethanol. Ethanol was used as a negative control, […], and GW7647 (10 nM) and Troglitazone (5 μM) were used as […].

PPARγ = biological target: T2, PPARγ (Homo sapiens, UniProt P37231); experiment: PPARγ ligand activity, GAL4-PPARγ reporter luciferase assay in CV-1 cells; assay type: cell-based; details: 24 hr incubation, KetoA and HYA each at 30 μM, other fatty acids by a similar method
T2 construct: expressed in transfected cells; host or cells: CV-1 (African green monkey kidney)
T2 sequence (P37231 238-503 limits assumed): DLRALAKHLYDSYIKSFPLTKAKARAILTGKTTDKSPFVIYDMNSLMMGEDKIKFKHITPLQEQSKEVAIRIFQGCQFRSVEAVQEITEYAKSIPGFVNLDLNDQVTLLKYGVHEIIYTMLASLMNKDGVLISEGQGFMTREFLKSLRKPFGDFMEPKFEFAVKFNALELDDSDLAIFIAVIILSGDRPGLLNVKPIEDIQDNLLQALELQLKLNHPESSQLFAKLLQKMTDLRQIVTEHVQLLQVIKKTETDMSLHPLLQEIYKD
Protocol: as §1, §2

PPARα agonist activity (relative luciferase activity) (PPARα)	PPARγ agonist activity (relative luciferase activity) (PPARγ)	Structure (SMILES)	immature SREBP-1 expression induced by LXR agonist (HepG2 cells)	mature SREBP-1 expression induced by LXR agonist (HepG2 cells)	body weight (KKAy mouse; HFD with 0.05% (w/w) added)	blood glucose level (KKAy mouse; added-feed group, amount not specified)	blood glucose level (KKAy mouse; 0.05% group, at 4 weeks of test diet)	intraperitoneal white fat weight (KKAy mouse; 0.1% group, after 4 weeks)	plasma neutral fat level (KKAy mouse; 0.1% group, after 4 weeks)	blood glucose level (KKAy mouse; 0.1% group, at 4 weeks of test diet)	body weight (KKAy mouse; HFD with 0.1% (w/w) added)	oxygen consumption level (KKAy mouse; day 16-19, added-feed group vs control group)	rectal temperature (KKAy mouse; day 26, added-feed group vs control group)
PPARα agonist activity	some PPARγ agonist activity	CCCCC/C=C\CC(O)CCCCCCCCC(=O)O (stereo not drawn) [HYA, 10-hydroxy-cis-12-octadecenoic acid]	strongly suppressed	strongly suppressed	significant suppression of body weight increase	tendency toward suppression of blood glucose level increase							
strong PPARα and γ agonist activity	strong PPARα and γ agonist activity	CCCCC/C=C\CC(=O)CCCCCCCCC(=O)O [KetoA, 10-oxo-cis-12-octadecenoic acid]	strongly suppressed	strongly suppressed	body weight increase suppression tendency		tendency toward suppression of blood glucose increase	significant decrease	significant decrease	stronger, significant hypoglycemic action	significant suppression of body weight increase	increase in the oxygen consumption level	increase in the rectal temperature
